# In patent US7491796B1, “Retro-inversion peptides that target GIT receptors and related methods” (Merrion Research III Limited, priority 1998, dated 2009):
# Where no end group is shown, it is not given here. The star is where a group is joined. Dansyl = CN(C)c1cccc2c(S(=O)(=O)*)cccc12
# Tested on: Caco-2 cell membrane (P100) fractions
# Test: Binding of dansylated peptides to Caco-2 cell membrane (P100) fractions by ELISA
# Settings: for Kd: Caco-2 P100 fractions, ELISA, read-out: KD (concentration of the peptide required to reach half maximal binding to Caco-2 P100 fractions); for Binding to P100 relative to ZElan021 (arbitrary value 1.00), P100 assay number 4: assay 4; for Binding to P100 relative to ZElan021 (arbitrary value 1.00), P100 assay number 4 / Binding to P100 relative to ZElan021 (arbitrary value 1.00), P100 assay number 5 / Binding to P100 relative to ZElan021 (arbitrary value 1.00), P100 assay number 6 / Binding to P100 relative to ZElan021 (arbitrary value 1.00), P100 assay number 7 / Binding to P100 relative to ZElan021 (arbitrary value 1.00), P100 assay number 8: peptide at 25 μg/ml; for Binding to P100 relative to ZElan021 (arbitrary value 1.00), P100 assay number 5: assay 5; for Binding to P100 relative to ZElan021 (arbitrary value 1.00), P100 assay number 6: assay 6; for Binding to P100 relative to ZElan021 (arbitrary value 1.00), P100 assay number 7: assay 7; for Binding to P100 relative to ZElan021 (arbitrary value 1.00), P100 assay number 8: assay 8
# Description: Similar to the methods described in the above-referenced WO 98/51325, Caco-2 cell membrane (P100) and cytosolic (S100) fractions were prepared using a modification of the method described in Kinsella, B. T., O'Mahony, D. J. and G. A. FitzGerald, 1994, J. Biol. Chem. 269(47): 29914-29919. Confluent Caco-2 cell monolayers (grown in 75 cm^2 flasks for up to 1 week at 37° C. and 5% CO2) were washed twice in Dulbecco's PBS (DPBS) and the cells were harvested by centrifugation at 1000 rpm after treatment with 10 mM EDTA-DPBS. The cells were washed 3 times in DPBS and the final cell pellet was resuspended in 3 volumes of ice cold HED buffer (20 mM HEPES (pH 7.67), 1 mM EGTA, 0.5 mM dithiothreitol, 1 mM phenylmethylsulphonyl fluoride (PMSF)). The cells were allowed to swell for 5 min on ice prior to homogenization for 30 sec. The homogenates were centrifuged at 40,000 rpm for 45 min at 4° C. The supernatant (S100) was removed and the pellet (P100) was resuspended in HEDG buffer (20 mM HEPES (pH 7.67), 1 mM EGTA, 0.5 mM dithiothreitol, 100 mM NaCl, 10% glycerol, 1 mM PMSF). Protein concentrations were determined using the Bradford assay (Bradford, M. M., 1976, Anal. Biochem. 72: 248-254).
# Binding of peptides to membrane (P100) was assessed by detection of the dansyl moiety incorporated in the peptide. Costar ninety six well ELISA plates were coated with P100 fractions (100 μg/ml in 0.05 M NaHCO3 (pH 9.6); 100 μl/well) overnight at 4° C. The plates were blocked with 2% Marvel-DPBS for 1 h at room temperature and washed 3 times in 1% DPBS-Tween. Peptides (200 μg/ml in 2% Marvel-DPBS) were serially diluted on the plates and incubated for 1 h at room temperature. The plates were washed 5 times and the dansylated peptides were detected using i) mouse anti-dansyl antiserum (Cytogen DB3-226.3; 1:1340 dilution in 2% Marvel-DPBS) or ii) rabbit anti-dansyl antiserum (La Jolla Diagnostics LAJD-119; 1:1000 dilutions) for 1 h at room temperature. The plates were washed 3 times prior to incubation with i) goat anti-mouse IgGλ:HRP antibody (Southern Biotechnology 1060-05; 1:10,000 dilution in 2% Marvel-DPBS) or ii) anti-rabbit IgG HRP (Sigma A-0545, 1:8,000) for 1 h at room temperature. After 3 washes, reactions were visualized using K Blue Substrate and Red Stop Solution (Neogen Co. 300176 & 301475, respectively) at 650 nm.
# ZElan021, full length HAX42 [K(dns)-[…]] (SEQ ID NO:53; dansylated version is SEQ ID NO:8) was given the arbitrary value of 1.00 for binding to P100 at a given peptide concentration determined from the signal-to-noise ratio data. […] Assay number 1 was at 20 μg/ml; 2 and 3 were at 50 μg/ml; and 4 through 8 were at 25 μg/ml.
# KD values, or the concentration of the peptide required to reach half maximal binding to Caco-2 P100 fractions, are given in Table 3 for ZElan021, full length HAX42, [K(dns)-[…]] (SEQ ID NO:53; dansylated version is SEQ ID NO:8), HAX42 fragment ZElan091, and the retro-inverted form of this fragment, ZElan146 as well as for ZElan018, full length PAX2, [K(dns)-STPPSREAYSRPYSVDS […]] (SEQ ID NO:7; dansylated version is SEQ ID NO:15), PAX2 fragment ZElan129, and the retro-inverted form of this fragment, ZELan144.
Substance,Kd [µM],"Binding to P100 relative to ZElan021 (arbitrary value 1.00), P100 assay number 4","Binding to P100 relative to ZElan021 (arbitrary value 1.00), P100 assay number 5","Binding to P100 relative to ZElan021 (arbitrary value 1.00), P100 assay number 6","Binding to P100 relative to ZElan021 (arbitrary value 1.00), P100 assay number 7","Binding to P100 relative to ZElan021 (arbitrary value 1.00), P100 assay number 8","Binding to P100 relative to ZElan021 (arbitrary value 1.00), P100 assay number 1 (assay 1, peptide at 20 μg/ml)","Binding to P100 relative to ZElan021 (arbitrary value 1.00), P100 assay number 2 (assay 2, peptide at 50 μg/ml)","Binding to P100 relative to ZElan021 (arbitrary value 1.00), P100 assay number 3 (assay 3, peptide at 50 μg/ml)"
K(dns)-PGDYNCCGNGNSTG [ZElan091],0.75,2.02,1.37,1.20,0.85,–,–,–,–
K(dns)-rtrlrrnhsshkant [ZElan144],28.8,–,–,–,–,–,–,–,–
"K(dns)-STPPSREAYSRPYSVDS DSDTNAKHSSHNRRLRTRSRPNG (K(Dansyl)STPPSREAYSRPYSVDSDSDTNAKHSSHNRRLRTRSRPNG) [ZElan018, dansylated full length PAX2]",> 50,–,–,–,–,–,–,–,–
K(dns)-gtsngngccnydgp [ZElan146],21.7,–,–,–,0.36,0.72,–,–,–
"K(dns)-SDHALGTNLRSDNAKEPGDYNCCGNGNSTGRKVFNRRRPSAIPT (K(Dansyl)SDHALGTNLRSDNAKEPGDYNCCGNGNSTGRKVFNRRRPSAIPT; cysteine pairing not given here) [ZElan021, dansylated full length HAX42]",6.7,1.00,1.00,1.00,1.14,0.94,1.00,1.00,1.00
"K(dns)-TNAKHSSHNRRLRTR (K(Dansyl)TNAKHSSHNRRLRTR) [ZElan129, dansylated PAX2 15 mer fragment]",29.6,–,–,–,–,–,–,–,–
